Measured values reported in patent US5723464A, “Piperazine derivatives” (American Home Products Corporation, priority 1994, dated 1998).

How the values were obtained:
5-HT1A receptor [1] = biological target: T1, 5-HT1A receptor (Rattus norvegicus, UniProt P19327); assay: 5-HT1A receptor binding affinity in rat hippocampal membrane homogenate; design: in rat hippocampal membrane homogenate; from tissue; host or cells: rat hippocampal membrane homogenate; conditions: for IC50: rat hippocampal membrane homogenate; for Ratio 5HT1A / α1 (binding selectivity): ratio of 5-HT1A binding to α1 binding
T1 sequence (P19327 1-422): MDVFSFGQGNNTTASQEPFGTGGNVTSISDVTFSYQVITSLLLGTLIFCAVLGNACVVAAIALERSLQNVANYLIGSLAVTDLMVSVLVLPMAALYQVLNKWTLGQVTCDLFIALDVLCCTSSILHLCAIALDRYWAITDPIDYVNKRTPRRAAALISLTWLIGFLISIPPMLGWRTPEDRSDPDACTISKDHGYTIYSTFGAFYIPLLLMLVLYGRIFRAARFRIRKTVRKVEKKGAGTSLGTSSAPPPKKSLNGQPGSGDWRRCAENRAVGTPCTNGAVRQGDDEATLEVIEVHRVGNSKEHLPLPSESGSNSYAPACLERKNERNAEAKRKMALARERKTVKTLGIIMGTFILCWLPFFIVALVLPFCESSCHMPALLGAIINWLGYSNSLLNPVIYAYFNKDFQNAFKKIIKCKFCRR
Procedure: The compounds were tested for 5-HT1A binding affinity (column 2) in rat hippocampal membrane homogenate by the method of B. S. Alexander and M. D. Wood, J. Pharm. Pharmacol., 1988, 40, 888-891.

5-HT1A receptor [2] = biological target: T1, 5-HT1A receptor; assay: Oral 5-HT1A receptor antagonist activity: antagonism of 8-OH-DPAT syndrome in rats; type: in vivo
Procedure: 5-HT1A receptor antagonist activity (columns 5 and 6) is assessed by the ability of the selective 5-HT1A receptor agonist, 8-OH-DPAT, to induce the `8-OH-DPAT syndrome` in rats characterised by extended flat body posture, forepaw treading and hyperlocomotion. The 8-OH-DPAT syndrome is scored as present (definite syndrome response) or absent (equivocal or no syndrome response) during the period 0-5 min following intravenous (i.v.) administration of the test agonist via a lateral tail vein.
A range of doses, on a logarithmic scale and encompassing the expected ED50, were chosen for the test agonist following preliminary evaluation. […]
Test antagonists were administered orally (p.o.) 60 min, before i.v. administration of 8-OH-DPAT. ED50 values for 8-OH-DPAT were determined for the different pretreatment groups using the sequential up/down procedure as described above.
The response to the selective 5-HT1A receptor agonist, 8-OH-DPAT, is represented as an ED50 value for induction of the 8-OH-DPAT syndrome, which is determined using the sequential up/down analysis following intravenous administration. 5-HT1A antagonist activity is determined by the ability of the test compound to antagonise the response to 8-OH-DPAT, i.e. to increase the ED50 for induction of the 8-OH-DPAT syndrome compared with vehicle pretreatment. […]

α1 receptor = α1 receptor binding affinity
Procedure: The compounds were tested for α1 binding affinity (column 3) by the procedure of A. L. Marrow et al, Mol. Pharmacol., 1986, 29, 321.

IC50 (5-HT1A receptor [1]) [nM]	Ratio 5HT1A / α1 (binding selectivity) (5-HT1A receptor [1])	5-HT1A antagonist Ratio (ED50 antagonist @ 3mg/kg po)/ED50 vehicle (5-HT1A receptor [2]; ED50 of 8-OH-DPAT (i.v.) after test compound 3 mg/kg p.o. divided by ED50 after vehicle, rats)	IC50 (α1 receptor) [nM]	5-HT1A binding affinity (in words) (5-HT1A receptor [1])	5-HT1A/α1 selectivity (in words) (5-HT1A receptor [1]; binding affinity at 5-HT1A compared to α1 receptors)	Structure (SMILES)	5-HT1A antagonist oral activity (in words) (5-HT1A receptor [2]; oral, compared to compounds of EP-A-512755)
4.3	564.4					C[C@H](CN1CCN(c2cccc3[nH]ccc23)CC1)N(C(=O)C1CCCCC1)c1ccccn1 [Compound A1, (R)-N-(1-methyl-2-(4-indolyl-1-piperazinyl)ethyl)-N-(2-pyridyl)-cyclohexanecarboxamide]	
3.2	317.5	34.4	1020	good 5-HT1A binding affinity	good	O=C(C1CCCCC1)N(CCN1CCN(c2cccc3[nH]ccc23)CC1)c1ccccn1 [Compound A3]	surprising increase in oral activity as 5-HT1A antagonists
6.8	142.5					C[C@H](CN(C(=O)C1CCCCC1)c1ccccn1)N1CCN(c2cccc3[nH]ccc23)CC1 [Compound A2, (R)-N-(2-methyl-2-(4-indolyl-1-piperazinyl)ethyl)-N-(2-pyridyl)-cyclohexanecarboxamide]	
